Data reported in patent US12466827B2, “1,3,4-oxadiazole derivative compounds as histone deacetylase 6 inhibitor, and the pharmaceutical composition comprising the same” (CHONG KUN DANG PHARMACEUTICAL CORP., priority 2020, dated 2025).

What was measured:
[1] = biological target: T1, human recombinant HDAC6 (Homo sapiens, UniProt Q9UBN7); test: In vitro HDAC enzyme activity inhibition assay (HDAC6); type: biochemical; conditions: for HDAC6 selectivity (fold): HDAC6 over HDAC1; for IC50: same protocol as the HDAC1 test, human recombinant HDAC6 (Calbiochem)
T1 construct: purchased Calbiochem Inc. 382180
T1 sequence (Q9UBN7 1-1215): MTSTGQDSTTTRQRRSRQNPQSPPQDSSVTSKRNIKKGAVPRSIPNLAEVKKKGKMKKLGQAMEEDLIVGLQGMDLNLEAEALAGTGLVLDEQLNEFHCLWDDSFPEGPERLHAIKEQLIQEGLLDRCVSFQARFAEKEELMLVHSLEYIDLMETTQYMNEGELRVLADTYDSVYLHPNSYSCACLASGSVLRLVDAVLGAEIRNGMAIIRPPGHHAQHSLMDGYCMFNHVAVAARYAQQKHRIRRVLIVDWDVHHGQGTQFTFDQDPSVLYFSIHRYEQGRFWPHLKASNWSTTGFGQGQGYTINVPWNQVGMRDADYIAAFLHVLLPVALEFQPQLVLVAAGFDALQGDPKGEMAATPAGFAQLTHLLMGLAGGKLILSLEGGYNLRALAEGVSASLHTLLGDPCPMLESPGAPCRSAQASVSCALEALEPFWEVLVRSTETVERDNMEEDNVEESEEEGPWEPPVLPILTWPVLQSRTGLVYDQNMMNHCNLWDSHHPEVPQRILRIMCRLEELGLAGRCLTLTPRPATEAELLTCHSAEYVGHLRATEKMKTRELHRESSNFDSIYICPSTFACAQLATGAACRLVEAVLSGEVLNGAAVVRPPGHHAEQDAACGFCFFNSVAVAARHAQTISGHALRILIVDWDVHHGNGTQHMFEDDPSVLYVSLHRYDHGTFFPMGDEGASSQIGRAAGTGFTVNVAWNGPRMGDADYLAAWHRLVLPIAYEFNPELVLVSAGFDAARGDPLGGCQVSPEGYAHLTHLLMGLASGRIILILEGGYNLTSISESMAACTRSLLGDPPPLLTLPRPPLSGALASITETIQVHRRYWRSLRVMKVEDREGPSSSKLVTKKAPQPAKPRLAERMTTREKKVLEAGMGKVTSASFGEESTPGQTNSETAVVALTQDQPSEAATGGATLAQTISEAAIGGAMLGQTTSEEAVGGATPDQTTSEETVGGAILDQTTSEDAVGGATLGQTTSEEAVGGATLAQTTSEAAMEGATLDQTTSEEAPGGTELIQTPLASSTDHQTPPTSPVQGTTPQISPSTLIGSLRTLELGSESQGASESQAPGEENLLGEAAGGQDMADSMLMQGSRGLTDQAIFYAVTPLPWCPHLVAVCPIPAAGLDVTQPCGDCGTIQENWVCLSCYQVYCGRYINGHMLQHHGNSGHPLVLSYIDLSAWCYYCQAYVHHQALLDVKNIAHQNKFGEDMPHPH
Procedure, shortened: (§1)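 Fluorimetric deacetylase kit: human recombinant HDAC1 or HDAC6 (0.3 μg) with 10 μM Fluor de Lys-SIRT1 substrate and 5-fold diluted compounds, 60 min at 30° C. Developer added for 30 min, fluorescence read at Ex 360/Em 460, IC50 calculated.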

[2] = biological target: T2, human recombinant HDAC1 (Homo sapiens, UniProt Q13547); test: In vitro HDAC enzyme activity inhibition assay (HDAC1); type: biochemical; conditions: Fluor de Lys-SIRT1 substrate 10 μM, 30° C., 60 minutes, fluorescence
T2 construct: purchased Enzo Life Sciences, Inc. BML-SE456
T2 sequence (Q13547 whole entry): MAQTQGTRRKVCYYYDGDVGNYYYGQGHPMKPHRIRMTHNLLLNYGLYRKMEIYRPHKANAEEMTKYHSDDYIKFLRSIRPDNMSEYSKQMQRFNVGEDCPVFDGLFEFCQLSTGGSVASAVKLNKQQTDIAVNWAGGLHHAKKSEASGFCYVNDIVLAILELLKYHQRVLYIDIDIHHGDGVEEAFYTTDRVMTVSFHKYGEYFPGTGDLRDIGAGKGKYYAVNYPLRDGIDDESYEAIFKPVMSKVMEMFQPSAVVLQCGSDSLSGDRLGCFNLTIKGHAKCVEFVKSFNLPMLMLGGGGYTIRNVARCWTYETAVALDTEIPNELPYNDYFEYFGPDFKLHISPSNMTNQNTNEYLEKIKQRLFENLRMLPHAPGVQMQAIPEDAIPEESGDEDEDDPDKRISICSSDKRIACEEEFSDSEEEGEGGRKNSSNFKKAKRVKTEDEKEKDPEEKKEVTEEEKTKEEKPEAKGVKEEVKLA
Procedure, shortened: as §1

## O=C(N1CCN(S(=O)(=O)N(Cc2cn3ccc(-c4nnc(C(F)F)o4)cc3n2)c2ccccc2)CC1)C(F)(F)F [Compound 4270, N-((7-(5-(difluoromethyl)-1,3,4-oxadiazol-2-yl)imidazo[1,2-a]pyridin-2-yl)methyl)-N-phenyl-4-(2,2,2-trifluoroacetyl)piperazine-1-sulfonamide]
[1]
  HDAC6 selectivity (fold): 327 fold
  IC50: 0.153 µM
[2]
  IC50: > 50 µM

## CS(=O)(=O)N1CCN(S(=O)(=O)N(Cc2cn3ccc(-c4nnc(C(F)F)o4)cc3n2)c2ccccc2)CC1 [Compound 4271, N-((7-(5-(difluoromethyl)-1,3,4-oxadiazol-2-yl)imidazo[1,2-a]pyridin-2-yl)methyl)-4-(methylsulfonyl)-N-phenylpiperazine-1-sulfonamide]
[1]
  HDAC6 selectivity (fold): 215 fold
  IC50: 0.232 µM
[2]
  IC50: > 50 µM

## COC(=O)N1CCN(S(=O)(=O)N(Cc2cn3ccc(-c4nnc(C(F)F)o4)cc3n2)c2ccccc2)CC1 [Compound 4272, methyl 4-(N-((7-(5-(difluoromethyl)-1,3,4-oxadiazol-2-yl)imidazo[1,2-a]pyridin-2-yl)methyl)-N-phenylsulfamoyl)piperazine-1-carboxylate]
[1]
  HDAC6 selectivity (fold): 298 fold
  IC50: 0.168 µM
[2]
  IC50: > 50 µM

## CN(C)C(=O)N1CCN(S(=O)(=O)N(Cc2cn3ccc(-c4nnc(C(F)F)o4)cc3n2)c2ccccc2)CC1 [Compound 4273, 4—(N-((7-(5-(difluoromethyl)-1,3,4-oxadiazol-2-yl)imidazo[1,2-a]pyridin-2-yl)methyl)-N-phenylsulfamoyl)-N, N-dimethylpiperazine-1-carboxamide]
[1]
  HDAC6 selectivity (fold): 413 fold
  IC50: 0.121 µM
[2]
  IC50: > 50 µM

## O=S(=O)(N1CCN(c2ccccn2)CC1)N(Cc1cn2ccc(-c3nnc(C(F)F)o3)cc2n1)c1ccccc1 [Compound 4274, N-((7-(5-(difluoromethyl)-1,3,4-oxadiazol-2-yl)imidazo[1,2-a]pyridin-2-yl)methyl)-N-phenyl-4-(pyridin-2-yl)piperazine-1-sulfonamide]
[1]
  HDAC6 selectivity (fold): 333 fold
  IC50: 0.15 µM
[2]
  IC50: > 50 µM

## O=S(=O)(N1CCN(c2ncccn2)CC1)N(Cc1cn2ccc(-c3nnc(C(F)F)o3)cc2n1)c1ccccc1 [Compound 4275, N-((7-(5-(difluoromethyl)-1,3,4-oxadiazol-2-yl)imidazo[1,2-a]pyridin-2-yl)methyl)-N-phenyl-4-(pyrimidin-2-yl)piperazine-1-sulfonamide]
[1]
  HDAC6 selectivity (fold): 351 fold
  IC50: 0.142 µM
[2]
  IC50: > 50 µM

## CN1CCN(S(=O)(=O)N(Cc2cn3ccc(-c4nnc(C(F)F)o4)cc3n2)c2cccc(F)c2)CC1 [Compound 4297, N-((7-(5-(difluoromethyl)-1,3,4-oxadiazol-2-yl)imidazo[1,2-a]pyridin-2-yl)methyl)-N-(3-fluorophenyl)-4-methylpiperazine-1-sulfonamide]
[1]
  HDAC6 selectivity (fold): 561 fold
  IC50: 0.0892 µM
[2]
  IC50: > 50 µM

## CCN1CCN(S(=O)(=O)N(Cc2cn3ccc(-c4nnc(C(F)F)o4)cc3n2)c2cccc(F)c2)CC1 [Compound 4298, N-((7-(5-(difluoromethyl)-1,3,4-oxadiazol-2-yl)imidazo[1,2-a]pyridin-2-yl)methyl)-4-ethyl-N-(3-fluorophenyl)-piperazine-1-sulfonamide]
[1]
  HDAC6 selectivity (fold): 631 fold
  IC50: 0.0792 µM
[2]
  IC50: > 50 µM

## CC(C)N1CCN(S(=O)(=O)N(Cc2cn3ccc(-c4nnc(C(F)F)o4)cc3n2)c2cccc(F)c2)CC1 [Compound 4299, N-((7-(5-(difluoromethyl)-1,3,4-oxadiazol-2-yl)imidazo[1,2-a]pyridin-2-yl)methyl)-N-(3-fluorophenyl)-4-isopropylpiperazine-1-sulfonamide]
[1]
  HDAC6 selectivity (fold): 488 fold
  IC50: 0.102 µM
[2]
  IC50: > 50 µM

## CC(CO)N1CCN(S(=O)(=O)N(Cc2cn3ccc(-c4nnc(C(F)F)o4)cc3n2)c2cccc(F)c2)CC1 (stereo not drawn) [Compound 4300, N-((7-(5-(difluoromethyl)-1,3,4-oxadiazol-2-yl)imidazo[1,2-a]pyridin-2-yl)methyl)-N-(3-fluorophenyl)-4-(1-hydroxypropan-2-yl)piperazine-1-sulfonamide]
[1]
  HDAC6 selectivity (fold): 410 fold
  IC50: 0.122 µM
[2]
  IC50: > 50 µM

## O=S(=O)(N1CCN(C2CCC2)CC1)N(Cc1cn2ccc(-c3nnc(C(F)F)o3)cc2n1)c1cccc(F)c1 [Compound 4301, 4-cyclobutyl-N-((7-(5-(difluoromethyl)-1,3,4-oxadiazol-2-yl)imidazo[1,2-a]pyridin-2-yl)methyl)-N-(3-fluorophenyl)piperazine-1-sulfonamide]
[1]
  HDAC6 selectivity (fold): 595 fold
  IC50: 0.0841 µM
[2]
  IC50: > 50 µM

## O=S(=O)(N1CCN(C2COC2)CC1)N(Cc1cn2ccc(-c3nnc(C(F)F)o3)cc2n1)c1cccc(F)c1 [Compound 4302]
[1]
  HDAC6 selectivity (fold): 737 fold
  IC50: 0.0678 µM
[2]
  IC50: > 50 µM

## O=S(=O)(N1CCN(C2CCCCC2)CC1)N(Cc1cn2ccc(-c3nnc(C(F)F)o3)cc2n1)c1cccc(F)c1 [Compound 4303, 4-cyclohexyl-N-((7-(5-(difluoromethyl)-1,3,4-oxadiazol-2-yl)imidazo[1,2-a]pyridin-2-yl)methyl)-N-(3-fluorophenyl)piperazine-1-sulfonamide]
[1]
  HDAC6 selectivity (fold): 299 fold
  IC50: 0.167 µM
[2]
  IC50: > 50 µM

## O=S(=O)(N1CCN(C2CCOCC2)CC1)N(Cc1cn2ccc(-c3nnc(C(F)F)o3)cc2n1)c1cccc(F)c1 [Compound 4304, N-((7-(5-(difluoromethyl)-1,3,4-oxadiazol-2-yl)imidazo[1,2-a]pyridin-2-yl)methyl)-N-(3-fluorophenyl)-4-(tetrahydro-2H-pyran-4-yl)piperazine-1-sulfonamide]
[1]
  HDAC6 selectivity (fold): 832 fold
  IC50: 0.0601 µM
[2]
  IC50: > 50 µM

## O=S(=O)(N1CCN(C2CCC(F)(F)CC2)CC1)N(Cc1cn2ccc(-c3nnc(C(F)F)o3)cc2n1)c1cccc(F)c1 [Compound 4305, 4-(4,4-difluorocyclohexyl)-N-((7-(5-(difluoromethyl)-1,3,4-oxadiazol-2-yl)imidazo[1,2-a]pyridin-2-yl)methyl)-N-(3-fluorophenyl)piperazine-1-sulfonamide]
[1]
  HDAC6 selectivity (fold): 437 fold
  IC50: 0.114 µM
[2]
  IC50: > 50 µM

## CC(=O)N1CCN(S(=O)(=O)N(Cc2cn3ccc(-c4nnc(C(F)F)o4)cc3n2)c2cccc(F)c2)CC1 [Compound 4306, 4-acetyl-N-((7-(5-(difluoromethyl)-1,3,4-oxadiazol-2-yl)imidazo[1,2-a]pyridin-2-yl)methyl)-N-(3-fluorophenyl)piperazine-1-sulfonamide]
[1]
  HDAC6 selectivity (fold): 617 fold
  IC50: 0.081 µM
[2]
  IC50: > 50 µM

## CCC(=O)N1CCN(S(=O)(=O)N(Cc2cn3ccc(-c4nnc(C(F)F)o4)cc3n2)c2cccc(F)c2)CC1 [Compound 4307, N-((7-(5-(difluoromethyl)-1,3,4-oxadiazol-2-yl)imidazo[1,2-a]pyridin-2-yl)methyl)-N-(3-fluorophenyl)-4-propionylpiperazine-1-sulfonamide]
[1]
  HDAC6 selectivity (fold): 365 fold
  IC50: 0.137 µM
[2]
  IC50: > 50 µM

## O=C(CO)N1CCN(S(=O)(=O)N(Cc2cn3ccc(-c4nnc(C(F)F)o4)cc3n2)c2cccc(F)c2)CC1 [Compound 4308, N-((7-(5-(difluoromethyl)-1,3,4-oxadiazol-2-yl)imidazo[1,2-a]pyridin-2-yl)methyl)-N-(3-fluorophenyl)-4-(2-hydroxyacetyl)piperazine-1-sulfonamide]
[1]
  HDAC6 selectivity (fold): 724 fold
  IC50: 0.0691 µM
[2]
  IC50: > 50 µM

## O=C(C1CCC1)N1CCN(S(=O)(=O)N(Cc2cn3ccc(-c4nnc(C(F)F)o4)cc3n2)c2cccc(F)c2)CC1 [Compound 4309, 4-(cyclobutanecarbonyl)-N-((7-(5-(difluoromethyl)-1,3,4-oxadiazol-2-yl)imidazo[1,2-a]pyridine-2-yl)methyl)-N-(3-fluorophenyl)piperazine-1-sulfonamide]
[1]
  HDAC6 selectivity (fold): 437 fold
  IC50: 0.114 µM
[2]
  IC50: > 50 µM
